Data reported in patent US5712160A, “Method of stimulating growth using neurotrophic peptides” (Board of Regents, The University of Texas System, priority 1995, dated 1998).
Values joined by “and” are separate entries in the source; they are usually repeats but may differ in a detail not shown here. Identical values can stand only once. “Also recorded” adds a separate entry of the source. Residues, ends and D or L forms follow the SMILES beside them. No end group written: not given here.

Legend:
PC12 cells = format: cell-based, rat
Procedure: Cell Culture. Stock cultures of PC12 cells are maintained in a medium consisting of RPMI 1640 supplemented with (v/v) 5% fetal calf serum and 5% horse serum ("complete medium"). At alternate feedings, media containing 1% PSN antibiotic mixture is used, consisting of 5 mg penicillin +5 mg streptomycin +10 mg neomycin/ml. Cells are grown in a humidified atmosphere containing 5% CO2. Cells are split once weekly in a 1:12 ratio by vigorous shaking and trituration. For experiments, PC12 cells are dislodged by shaking, centrifuged at 800×g, diluted in Puck's saline, counted in a hemocytometer, and plated on poly-D-lysine coated polystyrene tissue culture pates. For experiments to be performed in defined, serum-free medium, a modification of the N1 medium of Bottenstein et al. is used consisting of RPMI 1640 supplemented with insulin 5 ug/ml, transferrin 5 ug/ml, 20 nM progesterone, 100 μM putrescine, and 30 nM sodium selenite. Cells are plated in complete medium and allowed to attach overnight before washing twice with serum-free RPMI and addition of N1 medium. For experiments. examining effects of NGF on cell survival following serum deprivation, cells are plated in complete medium and allowed to attach overnight. Cells are then washed once with RPMI containing sheep anti-mouse beta-NGF to remove any residual NGF from serum. After washing once in RPMI, cells receive varying doses of NGF in RPMI. Media is changed on the third day of serum deprivation. On the fourth day, viability is assessed by ^35 S-methionine incorporation into trichloroacetic acid precipitable proteins. The effects of NGF on the response of PC12 cells to peptides is also examined by reduction of the dye 3, (4,5-dimethylthiazol-2-yl)-2,5-diphenyl-tetrazolium (MTT). For experiments using MTT, cells (1×10^4) are plated on poly-D-lysine coated 6 mm wells (96 well plates). Cells are allowed to attach overnight before addition of NGF and/or peptide. After 24 hr, media is removed and replaced with RPMI 1640 medium without serum. Following a 24 hour recovery period, each well is incubated with MTT for 4 hours at 37° C. Formaxan crystals are then solubilized in isopropanol containing 0.04N HCl and plates read on an ELISA reader using test and reference wavelengths of 570 and 630 nm, respectively. All statistics are performed by computer-assisted methods using the Number Cruncher for Statistical Sciences (NCSS) package. […]
The survival of PC12 cells was measured as a function of the amount of peptide P4.
Cells were plated out as mentioned above in RPMI 1640 without serum but in the presence of a fixed amount of NGF with varying amounts of peptide from 0.1 to 100 ug/ml (day one). […] The incorporation of ^35 S-Met into protein was determined by TCA precipitation and protein assay.

[1] = tested on: NGF receptor on PC12 cells
Procedure: Competitive binding assay. The following method of binding assay was carried out: precoat the 24-well plates were precoated with cytochrome C and the PC12 cells plated overnight as mentioned above. The ^125 I labeled NGF was added at 5 ng/ml in the presence of different doses of peptide from 4 ug/ml to 50 ug/ml. […] These peptides are very acidic and NGF is very basic.
In another experiment 24-well plates were precoated with poly-D-Lys at 0.06 mg/ml for 15 minutes and PC12 cells plated overnight at 1×10^5 cells/well in RPMI 1640 with serum conditioned media. The ^125 I-NGF was added at, e.g., 5 ng/ml, in the presence of varying amounts of peptide from 0.01 ug/ml to 50 ug/ml in Hepes buffer with 1 mg/ml BSA. The cells were incubated at rt. for 1 hour then washed with PBS three times and lysed with 0.5N NaOH. The radioactivity was then measured. Protein concentrations of the aliquots were determined by Lowry assay.

labelled NGF = labelled NGF (Homo sapiens, UniProt P01138); experiment: Binding of labelled NGF to peptide fixed on a membrane disc/filter
Chain of labelled NGF (P01138 122-241): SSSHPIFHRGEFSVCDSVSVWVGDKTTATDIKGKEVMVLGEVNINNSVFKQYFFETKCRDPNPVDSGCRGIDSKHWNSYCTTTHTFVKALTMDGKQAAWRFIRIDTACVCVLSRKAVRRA
Procedure: Membrane discs were placed into wells of 96 well plate. Peptide (for example 265 ng/ul) was spotted on each disc. Series dilutions of peptide were used to assure the binding. The disc was dried at 37° C. (or 40° C.) for 1 hour. […] 4% BSA TBS was added to each well. An amount of labelled NGF was added to each well, followed by incubation in 4% BSA TBS. Each disc was washed 4 times with 200 ul TBS (5 minute interval). The discs were transferred to counting vial and counted.
Peptide P4 was attached to a solid matrix at various concentrations and the binding of labeled NGF measured to these various concentrations of bound P4. It is noted that an apparent maximal binding was achieved when about 3 μg of peptide P4 were bound. FIG. 4 illustrates how differing amounts of peptide bound differing amounts of labelled NGF. Here the peptide is fixed to a filter in varying amounts, then exposed to constant amounts of labelled NGF and washed extensively to displace unspecifically bound radioactivity. […] The specific augmentation of NGF effects may thus be understood when small amounts of peptide are added.

[2] = tested on: PC12 cells transplanted into rat cortex; experiment: Transplant of pretreated PC12 cells into lesioned rat brain, NGF receptor immunohistochemistry (Ig192); format: in vivo; settings: cells treated in vitro two weeks; rat cortex stab wound; two weeks after transplant
Procedure: PC12 cells were treated with nerve growth factor (NGF) or peptide P4 in vitro for two weeks. The cells were then transplanted into a rat cortex at the site of the stab wound or 6-hydroxy dopamine-induced lesion. Two weeks after the transplant of the P12 cells, the animal brain was processed for immunohistochemistry by staining with monoclonal antibody to NGF receptor (Ig192). […] The stab-wound lesions carried out by inserting a 24 gauge needle into a stereotoxicly fixed animal so as to lesion motor cortex. Cells were then deposited with the same needle into the wound cavity.
The 6-hydroxydopamine lesions were carried out by injecting […] stereotoxicly into striatum with a needle two weeks prior to transplantation and/or treatment of animals.

NGFR-I = settings: high affinity, low capacity binding site; read-out: equilibrium dissociation constant (Kd) of NGF binding; cited from earlier work
NGFR-II = biological target: T1, NGFR-II (Homo sapiens, UniProt P08138); settings: low affinity, high capacity binding site; read-out: equilibrium dissociation constant (Kd) of NGF binding; cited from earlier work
T1 sequence (P08138 29-427): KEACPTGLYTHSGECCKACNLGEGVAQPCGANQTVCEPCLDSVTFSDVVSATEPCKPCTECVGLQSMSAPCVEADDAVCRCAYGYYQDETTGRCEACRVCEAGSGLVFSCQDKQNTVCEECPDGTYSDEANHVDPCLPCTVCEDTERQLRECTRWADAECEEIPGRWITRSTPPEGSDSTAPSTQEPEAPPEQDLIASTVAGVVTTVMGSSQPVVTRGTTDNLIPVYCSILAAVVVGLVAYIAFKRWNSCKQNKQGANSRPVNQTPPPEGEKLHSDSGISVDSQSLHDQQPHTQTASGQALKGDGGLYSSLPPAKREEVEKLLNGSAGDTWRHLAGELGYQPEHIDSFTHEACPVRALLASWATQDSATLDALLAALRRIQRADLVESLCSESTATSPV

## Tyr--Cys--Gln--Asp--Lys--Gln--Asn--Thr--Val--Cys--Glu--Glu--Cys--Pro--Glu--OH (YCQDKQNTVCEECPE-OH; cysteine pairing not given here) [P5]
PC12 cells; in the presence of 0.5 ng/ml NGF
  PC12 cell survival during serum deprivation (FIG. 6): enhancement of cell survival

## CC(C)[C@H](NC(=O)[C@@H](NC(=O)[C@H](CC(N)=O)NC(=O)[C@H](CCC(N)=O)NC(=O)[C@H](CCCCN)NC(=O)[C@H](CC(=O)O)NC(=O)[C@H](CCC(N)=O)NC(=O)[C@@H](N)CS)[C@@H](C)O)C(=O)N[C@@H](CS)C(=O)N[C@@H](CCC(=O)O)C(=O)N[C@@H](CCC(=O)O)C(=O)N[C@@H](CS)C(=O)N1CCC[C@H]1C(=O)N[C@@H](CCC(=O)O)C(=O)O [P4, Cys--Gln--Asp--Lys--Gln--Asn--Thr--Val--Cys--Glu--Glu--Cys--Pro--Glu--OH] (H-CQDKQNTVCEECPE-OH; N-terminus assumed)
PC12 cells; NGF concentrations of 0.1 to 10 ng/ml
  PC12 cell protein synthesis activity (FIG. 6B): trophic effects
PC12 cells; in the presence of 2 ng/ml NGF
  peptide concentration at maximal PC12 cell survival (FIG. 3): 5 µg
PC12 cells; peptide 0.1 ug/ml, serum-free, fixed amount of NGF, day four
  increase in protein synthesized (35S-Met incorporation): 20%
[1]; lower peptide concentrations measured (1.3 μg)
  binding of labeled NGF to PC12 cells (FIG. 5): amplified
[1]; peptide at concentrations higher than about 1.5 μg
  displacement of bound labeled NGF from PC12 cells (FIG. 5): effective in displacing bound labeled NGF
[1]; peptide within 0.01-0.1 ug/ml range, 125I-NGF 5 ng/ml, PC12 cells, 1 hour rt
  increase in binding of 125I-NGF to its receptor: 50%
Labelled NGF; peptide fixed to filter, constant amount of labelled NGF
  amount of bound peptide at apparent maximal binding of labeled NGF (FIG. 4): about 3 μg
Labelled NGF; varying amounts of peptide on filter, washed extensively
  binding of labelled NGF to fixed peptide: saturation indicative of specific binding of NGF to peptide
[2]
  NGF receptor immunostaining of transplanted PC12 cells (FIG. 8B vs 8A): significantly greater NGF receptor; also recorded: denser accumulation of NGF receptor sites

## NGF: Nerve growth factor, a neurotrophic protein; only the β-NGF subunit has nerve growth promoting activity
NGFR-I
  Kd: ~0.01 nM and 0.01 nM
[1]; 10 micrograms unlabeled NGF or peptide, various concentrations of free labeled NGF
  displacement of labeled NGF from PC12 cells (FIG. 1): more effective in displacing labeled NGF than most of the synthetic peptides
NGFR-II
  Kd: ~1 nM and 1 nM
